Reference: patent US20240140957A1, “BRIDGED COMPOUNDS AS KRAS G12D INHIBITOR AND DEGRADER AND THE USE THEREOF” (BeiGene Switzerland GmbH, priority 2021, published 2024)

Experiments:
GDP-loaded WT KRAS = GDP-loaded WT KRAS (Homo sapiens, UniProt P01116); test: KRAS WT Probe Displacement Assay; type: binding; details: WT KRAS 3 nM, biotinylated probe 1 60 nM; read-out: KRAS WT Probe Displacement Assay IC50
GDP-loaded KRAS G12D = GDP-loaded KRAS G12D (Homo sapiens, UniProt P01116, G12D); test: KRAS G12D Probe Displacement Assay; type: binding; details: KRAS G12D 0.5 nM, biotinylated probe 2 4 nM; read-out: KRAS G12D Probe Displacement Assay IC50
[1] = test system: pERK1/2 (THR202/TYR204) in AsPC-1 cells; test: pERK Assay (HTRF) in AsPC-1 cells; type: cell-based; details: Homo sapiens, ASPC1, 2 h compound treatment

Chain of GDP-loaded KRAS G12D (P01116 1-188 isoform P01116-2 G12D): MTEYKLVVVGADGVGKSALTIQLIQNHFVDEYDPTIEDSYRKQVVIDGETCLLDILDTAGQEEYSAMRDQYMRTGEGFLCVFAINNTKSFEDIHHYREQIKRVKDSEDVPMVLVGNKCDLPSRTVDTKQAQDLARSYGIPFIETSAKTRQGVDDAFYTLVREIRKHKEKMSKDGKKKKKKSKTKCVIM
Chain of GDP-loaded WT KRAS (P01116 1-188 isoform P01116-2): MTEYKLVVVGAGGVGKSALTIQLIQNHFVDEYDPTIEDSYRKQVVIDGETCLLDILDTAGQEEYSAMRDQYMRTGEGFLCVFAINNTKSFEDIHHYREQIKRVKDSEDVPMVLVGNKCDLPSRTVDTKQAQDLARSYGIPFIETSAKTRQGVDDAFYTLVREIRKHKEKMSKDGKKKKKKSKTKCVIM

SMILES	IC50 (GDP-loaded WT KRAS) [nM]	IC50 (GDP-loaded KRAS G12D) [nM]	IC50 [1] [nM]
CNC1C[C@H]2CC[C@@H]1N2c1nc(OC[C@@H]2C[C@@H](F)CN2C)nc2c(F)c(-c3ccc(F)c4sc(N)nc34)c(Cl)cc12 (stereo partly drawn) [Example E59, 4-(6-chloro-8-fluoro-2-(((2S,4R)-4-fluoro-1-methylpyrrolidin-2-yl)methoxy)-4-((1S,4R)-2-(methylamino)-7-azabicyclo[2.2.1]heptan-7-yl)quinazolin-7-yl)-7-fluorobenzo[d]thiazol-2-amine]	390	14	1400
Nc1nc2c(-c3c(C(F)(F)F)cc4c(N5C6CCC5CNC6)nc(OC[C@@]56CCCN5C[C@H](F)C6)nc4c3F)ccc(F)c2s1 [Example E60, 4-(4-(3,8-diazabicyclo[3.2.1]octan-8-yl)-8-fluoro-2-(((2R,7aS)-2-fluorotetrahydro-1H-pyrrolizin-7a(5H)-yl)methoxy)-6-(trifluoromethyl)quinazolin-7-yl)-7-fluorobenzo[d]thiazol-2-amine]	2.6	0.27	34
CN1CCCC1(C)COc1nc(N2CC3CCC(C2)N3)c2cc(Cl)c(-c3ccc(F)c4sc(N)nc34)c(F)c2n1 (stereo not drawn) [Example E61, 4-(4-(3,8-diazabicyclo [3.2.1]octan-3-yl)-6-chloro-2-((1,2-dimethylpyrrolidin-2-yl)methoxy)-8-fluoroquinazolin-7-yl)-7-fluorobenzo[d]thiazol-2-amine]	240	2.6	2000
CC1(N2CCCCC2)CN(c2nc(N3CC4CCC(C3)N4)c3cc(Cl)c(-c4ccc(F)c5sc(N)nc45)c(F)c3n2)C1 [Example E62, 4-(4-(3,8-diazabicyclo[3.2.1]octan-3-yl)-6-chloro-8-fluoro-2-(3-methyl-3-(piperidin-1-yl)azetidin-1-yl)quinazolin-7-yl)-7-fluorobenzo[d]thiazol-2-amine]	660	9.6	740
Nc1nc2c(-c3c(Cl)cc4c(N5CC6CCC(C5)N6)nc(OC[C@@]56CCCN5C[C@H](F)C6)nc4c3Cl)ccc(F)c2s1 [Example E63, 4-(4-(3,8-diazabicyclo[3.2.1]octan-3-yl)-6,8-dichloro-2-(((2R,7aS)-2-fluorotetrahydro-1H-pyrrolizin-7a(5H)-yl)methoxy)quinazolin-7-yl)-7-fluorobenzo[d]thiazol-2-amine]	8.5	0.22	93
Nc1nc2c(-c3c(C(F)(F)F)cc4c(N5CC6CCC(C5)N6)nc(OC[C@@]56CCCN5C[C@H](F)C6)nc4c3Cl)ccc(F)c2s1 [Example E64, 4-(4-(3,8-diazabicyclo[3.2.1]octan-3-yl)-8-chloro-2-(((2R,7aS)-2-fluorotetrahydro-1H-pyrrolizin-7a(5H)-yl)methoxy)-6-(trifluoromethyl)quinazolin-7-yl)-7-fluorobenzoI[d]thiazol-2-amine]	5.1	0.33	38
Nc1cc(Cl)c(C(F)(F)F)c(-c2c(Cl)cc3c(N4CC5CCC(C4)N5)nc(OC[C@@]45CCCN4C[C@H](F)C5)nc3c2F)n1 [Example E65, 6-(4-(3,8-diazabicyclo[3.2.1]octan-3-yl)-6-chloro-8-fluoro-2-(((2R,7aS)-2-fluorotetrahydro-1H-pyrrolizin-7a(5H)-yl)methoxy)quinazolin-7-yl)-4-chloro-5-(trifluoromethyl)pyridin-2-amine]	20.5	0.44	65
C=Cc1cc2c(N3CC4CCC(C3)N4)nc(OC[C@@H]3C[C@@H](F)CN3C)nc2c(F)c1-c1ccc(F)c2sc(N)nc12 [Example E66, 4-(4-((3,8-diazabicyclo[3.2.1]octan-3-yl)-8-fluoro-2-(((2S,4R)-4-fluoro-1-methylpyrrolidin-)-yl)methoxy)-6-vinylquinazolin-7-yl)-7-fluorobenzo[d]thiazol-2-amine]	72	2.2	480
